In patent publication US9535067B2, “DOT1L probes” (DANA-FARBER CANCER INSTITUTE, INC., priority 2013, dated 2017):

Target: DOT1L (Homo sapiens, UniProt Q8TEK3)
Assay: Differential Scanning Fluorimetry (DFS) Assay
Format: binding
Text: DFS enables assays suitable for high throughput screening assays for the effect of a small molecule on protein stability. DFS assays measures the thermal stability of a target protein and a subsequent increase in protein melting temperature upon binding of a ligand to the protein. Generally, specific binding will stabilize the protein. An exemplary protocol for performing a DFS for detecting the binding of (with or without a test compound) a fluorescence labeled probe to DOT1L, or an analog thereof, is as follows.
First, a protein solution comprising DOT1L or an active fragment thereof (e.g., DOT1L SET domain) is prepared in a suitable buffer at a desired concentration (e.g., 0.1 μM. 0.5 μM, 1.0 μM, 2.5 μM, 5.0 μM, 10 μM, 20 μM, or 100 μM). Then, a probe solution comprising a compound of formula (I), (le), (If) or (Ig) is prepared. A volume of the protein solution is combined with a volume of the probe solution in the presence or absence of a test compound. Binding of the probe to DOT1L or an active fragment thereof is then measured using a fluorometer.

Sequence of DOT1L (Q8TEK3 whole entry, species assumed): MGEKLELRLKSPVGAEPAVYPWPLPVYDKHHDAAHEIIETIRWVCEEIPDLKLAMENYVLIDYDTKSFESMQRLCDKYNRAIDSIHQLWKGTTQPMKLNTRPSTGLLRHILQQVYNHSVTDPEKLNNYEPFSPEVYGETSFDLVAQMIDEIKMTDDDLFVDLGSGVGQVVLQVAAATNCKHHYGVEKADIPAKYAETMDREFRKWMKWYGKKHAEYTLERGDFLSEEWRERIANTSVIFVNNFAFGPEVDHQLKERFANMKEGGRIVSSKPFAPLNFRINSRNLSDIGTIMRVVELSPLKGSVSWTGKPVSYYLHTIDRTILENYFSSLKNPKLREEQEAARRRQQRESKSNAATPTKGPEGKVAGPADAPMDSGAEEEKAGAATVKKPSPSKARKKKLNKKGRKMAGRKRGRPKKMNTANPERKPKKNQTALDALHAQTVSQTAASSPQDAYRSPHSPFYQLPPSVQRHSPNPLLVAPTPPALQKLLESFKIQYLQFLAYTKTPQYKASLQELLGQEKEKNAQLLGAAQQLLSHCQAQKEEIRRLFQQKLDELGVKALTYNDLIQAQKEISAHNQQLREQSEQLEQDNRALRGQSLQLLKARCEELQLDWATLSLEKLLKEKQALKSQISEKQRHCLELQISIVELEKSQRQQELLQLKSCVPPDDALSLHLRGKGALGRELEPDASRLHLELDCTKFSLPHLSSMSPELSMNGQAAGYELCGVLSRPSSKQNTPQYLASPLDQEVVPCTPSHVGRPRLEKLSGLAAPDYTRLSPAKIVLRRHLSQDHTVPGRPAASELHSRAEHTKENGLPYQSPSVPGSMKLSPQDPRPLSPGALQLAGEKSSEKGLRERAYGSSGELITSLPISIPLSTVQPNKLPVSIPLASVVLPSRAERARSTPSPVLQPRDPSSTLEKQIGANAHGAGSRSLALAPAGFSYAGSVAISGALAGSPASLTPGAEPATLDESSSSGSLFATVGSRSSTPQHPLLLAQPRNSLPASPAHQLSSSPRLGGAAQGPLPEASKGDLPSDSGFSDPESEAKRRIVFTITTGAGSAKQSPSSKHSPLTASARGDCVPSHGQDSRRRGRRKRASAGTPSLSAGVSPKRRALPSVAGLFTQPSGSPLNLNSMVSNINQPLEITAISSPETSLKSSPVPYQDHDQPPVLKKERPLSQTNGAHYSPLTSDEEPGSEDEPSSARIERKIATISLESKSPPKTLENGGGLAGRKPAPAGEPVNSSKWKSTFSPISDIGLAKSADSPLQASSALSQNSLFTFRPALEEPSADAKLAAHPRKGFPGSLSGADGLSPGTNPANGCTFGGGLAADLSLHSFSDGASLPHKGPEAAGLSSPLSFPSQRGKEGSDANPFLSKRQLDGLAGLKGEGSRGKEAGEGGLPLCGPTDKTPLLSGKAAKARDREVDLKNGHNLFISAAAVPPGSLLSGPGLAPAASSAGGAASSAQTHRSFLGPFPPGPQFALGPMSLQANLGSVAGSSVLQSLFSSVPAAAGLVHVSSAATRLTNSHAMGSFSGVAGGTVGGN

## CC(C)N(CCCNC(=O)Nc1ccc(C(C)(C)C)cc1)C[C@H]1O[C@@H](n2cnc3c(NCCCC(=O)NCCCOCCOCCOCCCNC(=O)CCCC[C@@H]4SC[C@@H]5NC(=O)N[C@@H]54)ncnc32)[C@H](O)[C@@H]1O [JQPROB2B]
  binding effect / binding affinity against DOT1L (thermal stabilisation, FIG. 1): reasonable binding affinity
